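Five concentrations, 48 hours, 96-well plates. TGI is the concentration that stops growth completely.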 Where a SMILES comes first, the peptide text is derived from it. The star is where a group is joined. Cbz = O=C(OCc1ccccc1)*; OBn = c1ccc(CO*)cc1

The test system of the first experiment is SNB-75 CNS. Description: NCI tumour cell line growth inhibition, 48 h.
In the case of `O=c1n(/N=C/c2ccccc2)c(=O)n2n1C1C=CC2CC1`, the TGI is > 100 µM.
In the case of `O=C(NC(C(F)(F)F)(C(F)(F)F)P(=O)(c1ccccc1)c1ccccc1)C(C(F)(F)F)C(F)(F)F`, the TGI was determined as 91.3 µM.
On to `O=C1CC(=O)NC(=NN2C(=O)CSC2c2ccc(Cl)c(Cl)c2)N1` (stereo not drawn), for which the TGI is > 100 µM.
`COC(=O)[C@H](Cc1ccccc1)NC(=O)NCCN(CCNC(=O)N[C@@H](Cc1ccccc1)C(=O)OC)C(=O)N[C@@H](Cc1ccccc1)C(=O)OC` had a TGI of 35.9 µM.
Take `COc1cc2c(cc1OC)-c1[nH]c3ccc(C#N)cc3c1CC(=O)N2`: the TGI is > 100 µM.
As to `COc1cc(Br)c(OC)c2c(OC)cc(C)cc12`, the TGI was > 100 µM.
In turn, `CCOC(=O)/C(N=Nc1ccc(-n2c(C)nc3ccccc3c2=O)cc1)=C(/C)O` displayed a TGI of 78.4 µM.
`C[C@@]12C=CC3C/C(=N\C(N)=S)C=C(CCCC4OCCO4)[C@]3(CC1)C2` (stereo partly drawn) returned a TGI of 66.3 µM.
The same measure, in the same setting: the same measure for `CSc1nc2ccccc2c(=O)n1/N=C1\C(=O)N(CN2CCCCC2)c2ccc(Cl)cc21`: 58.4 µM.

A further experiment relates to A549 NSCLC. Kind of experiment: NCI tumour cell line growth inhibition, 48 h.
With `O=C(c1ccc(Cl)cc1Cl)N(C(=O)N1CCC(c2ccccc2)CC1)c1ccccc1`, the TGI is > 100 µM.
As for `COC(=O)CNC(=O)C(C)NC(=O)C(CC(=O)OCc1ccccc1)NC(=O)OCc1ccccc1` (stereo not drawn) (Cbz-Asp(OBn)-Ala-Gly-OMe; configuration not given here), the TGI is > 100 µM.
Turning to `Oc1ccccc1/C=N/Nc1nnc2c3ccccc3c3ccccc3c2n1`, the TGI is > 100 µM.
Consider `CC(C)=CCOc1cc(NC(=S)c2ccoc2C)ccc1Cl`, for which the TGI is > 100 µM.
As for `N#CC1(C#N)C2CCCCC23OC(=N)C1(C#N)C(c1ccco1)O3` (stereo not drawn), the TGI is > 100 µM.
As for `O=c1n(/N=C/c2ccccc2)c(=O)n2n1C1C=CC2CC1`, the TGI was > 100 µM.
`O=C(NC(C(F)(F)F)(C(F)(F)F)P(=O)(c1ccccc1)c1ccccc1)C(C(F)(F)F)C(F)(F)F`: the TGI was > 100 µM.
As to `O=C1CC(=O)NC(=NN2C(=O)CSC2c2ccc(Cl)c(Cl)c2)N1` (stereo not drawn), the TGI was > 100 µM.
`COC(=O)[C@H](Cc1ccccc1)NC(=O)NCCN(CCNC(=O)N[C@@H](Cc1ccccc1)C(=O)OC)C(=O)N[C@@H](Cc1ccccc1)C(=O)OC` had a TGI of 54.3 µM.
For the molecule `COc1cc2c(cc1OC)-c1[nH]c3ccc(C#N)cc3c1CC(=O)N2`, the TGI is > 100 µM.
For the molecule `CCOC(=O)/C(N=Nc1ccc(-n2c(C)nc3ccccc3c2=O)cc1)=C(/C)O`, the TGI is > 100 µM.
The molecule `C[C@@]12C=CC3C/C(=N\C(N)=S)C=C(CCCC4OCCO4)[C@]3(CC1)C2` (stereo partly drawn) came in with a TGI of 59.7 µM.
Same read-out and setting: the result for `CC(C)c1ccccc1SC1CC(=O)CC(Sc2ccccc2C(C)C)C12O[C@H](c1ccccc1)[C@@H](c1ccccc1)O2` (stereo partly drawn) reads > 100 µM.
Still for that read-out and setting: the same measure for `CSc1nc2ccccc2c(=O)n1/N=C1\C(=O)N(CN2CCCCC2)c2ccc(Cl)cc21`: > 100 µM.

In a further experiment the test system is COLO 205 colon. Description: NCI tumour cell line growth inhibition, 48 h.
With `O=C(c1ccc(Cl)cc1Cl)N(C(=O)N1CCC(c2ccccc2)CC1)c1ccccc1`, the TGI was > 100 µM.
Still for that read-out and setting: the result for `COC(=O)CNC(=O)C(C)NC(=O)C(CC(=O)OCc1ccccc1)NC(=O)OCc1ccccc1` (stereo not drawn) (Cbz-Asp(OBn)-Ala-Gly-OMe; configuration not given here) reads > 100 µM; that for `Oc1ccccc1/C=N/Nc1nnc2c3ccccc3c3ccccc3c2n1`, > 100 µM.
Still for that read-out and setting: the result for `CC(C)=CCOc1cc(NC(=S)c2ccoc2C)ccc1Cl` reads > 100 µM; that for `N#CC1(C#N)C2CCCCC23OC(=N)C1(C#N)C(c1ccco1)O3` (stereo not drawn), 31.6 µM.
Turning to `O=c1n(/N=C/c2ccccc2)c(=O)n2n1C1C=CC2CC1`, the TGI is > 100 µM.
Still for that read-out and setting: the result for `O=C(NC(C(F)(F)F)(C(F)(F)F)P(=O)(c1ccccc1)c1ccccc1)C(C(F)(F)F)C(F)(F)F` reads 37.4 µM; that for `O=C1CC(=O)NC(=NN2C(=O)CSC2c2ccc(Cl)c(Cl)c2)N1` (stereo not drawn), > 100 µM; that for `COC(=O)[C@H](Cc1ccccc1)NC(=O)NCCN(CCNC(=O)N[C@@H](Cc1ccccc1)C(=O)OC)C(=O)N[C@@H](Cc1ccccc1)C(=O)OC`, 40.9 µM.
Regarding `COc1cc2c(cc1OC)-c1[nH]c3ccc(C#N)cc3c1CC(=O)N2`, the TGI was 10.6 µM.
Turning to `COc1cc(Br)c(OC)c2c(OC)cc(C)cc12`, the TGI is > 100 µM.
For the molecule `CCOC(=O)/C(N=Nc1ccc(-n2c(C)nc3ccccc3c2=O)cc1)=C(/C)O`, the TGI is > 100 µM.
`C[C@@]12C=CC3C/C(=N\C(N)=S)C=C(CCCC4OCCO4)[C@]3(CC1)C2` (stereo partly drawn) had a TGI of 26 µM.
For the molecule `CC(C)c1ccccc1SC1CC(=O)CC(Sc2ccccc2C(C)C)C12O[C@H](c1ccccc1)[C@@H](c1ccccc1)O2` (stereo partly drawn), the TGI is > 100 µM.
For `CSc1nc2ccccc2c(=O)n1/N=C1\C(=O)N(CN2CCCCC2)c2ccc(Cl)cc21`, the TGI amounted to 36 µM.

A further experiment deals with MALME-3M melanoma. Kind of experiment: NCI tumour cell line growth inhibition, 48 h.
For `COC(=O)CNC(=O)C(C)NC(=O)C(CC(=O)OCc1ccccc1)NC(=O)OCc1ccccc1` (stereo not drawn) (Cbz-Asp(OBn)-Ala-Gly-OMe; configuration not given here), the TGI was > 100 µM.
As to `Oc1ccccc1/C=N/Nc1nnc2c3ccccc3c3ccccc3c2n1`, the TGI was > 100 µM.
Turning to `CC(C)=CCOc1cc(NC(=S)c2ccoc2C)ccc1Cl`, the TGI was > 100 µM.
`N#CC1(C#N)C2CCCCC23OC(=N)C1(C#N)C(c1ccco1)O3` (stereo not drawn) returned a TGI of 48.3 µM.
`O=C(NC(C(F)(F)F)(C(F)(F)F)P(=O)(c1ccccc1)c1ccccc1)C(C(F)(F)F)C(F)(F)F` displayed a TGI of 33.6 µM.
On the same count and under the same terms, the same measure for `O=C1CC(=O)NC(=NN2C(=O)CSC2c2ccc(Cl)c(Cl)c2)N1` (stereo not drawn): > 100 µM; for `COC(=O)[C@H](Cc1ccccc1)NC(=O)NCCN(CCNC(=O)N[C@@H](Cc1ccccc1)C(=O)OC)C(=O)N[C@@H](Cc1ccccc1)C(=O)OC`: 37.8 µM.
Take `COc1cc2c(cc1OC)-c1[nH]c3ccc(C#N)cc3c1CC(=O)N2`: the TGI is > 100 µM.
`COc1cc(Br)c(OC)c2c(OC)cc(C)cc12`: the TGI is > 100 µM.
Still for that read-out and setting: the result for `C[C@@]12C=CC3C/C(=N\C(N)=S)C=C(CCCC4OCCO4)[C@]3(CC1)C2` (stereo partly drawn) reads 37.6 µM.
On the same count and under the same terms, the result for `CSc1nc2ccccc2c(=O)n1/N=C1\C(=O)N(CN2CCCCC2)c2ccc(Cl)cc21` reads > 100 µM.

In a further experiment the test system is SN12C renal. Description: NCI tumour cell line growth inhibition, 48 h.
On to `O=C(c1ccc(Cl)cc1Cl)N(C(=O)N1CCC(c2ccccc2)CC1)c1ccccc1`, for which the TGI is > 100 µM.
For the molecule `COC(=O)CNC(=O)C(C)NC(=O)C(CC(=O)OCc1ccccc1)NC(=O)OCc1ccccc1` (stereo not drawn) (Cbz-Asp(OBn)-Ala-Gly-OMe; configuration not given here), the TGI was > 100 µM.
For the molecule `Oc1ccccc1/C=N/Nc1nnc2c3ccccc3c3ccccc3c2n1`, the TGI was > 100 µM.
As for `CC(C)=CCOc1cc(NC(=S)c2ccoc2C)ccc1Cl`, the TGI is > 100 µM.
Same read-out and setting: the result for `N#CC1(C#N)C2CCCCC23OC(=N)C1(C#N)C(c1ccco1)O3` (stereo not drawn) reads 29.2 µM; that for `O=c1n(/N=C/c2ccccc2)c(=O)n2n1C1C=CC2CC1`, > 100 µM; that for `O=C(NC(C(F)(F)F)(C(F)(F)F)P(=O)(c1ccccc1)c1ccccc1)C(C(F)(F)F)C(F)(F)F`, 77 µM.
Turning to `O=C1CC(=O)NC(=NN2C(=O)CSC2c2ccc(Cl)c(Cl)c2)N1` (stereo not drawn), the TGI was > 100 µM.
Regarding `COc1cc2c(cc1OC)-c1[nH]c3ccc(C#N)cc3c1CC(=O)N2`, the TGI was > 100 µM.
Consider `COc1cc(Br)c(OC)c2c(OC)cc(C)cc12`, for which the TGI was > 100 µM.
As to `CCOC(=O)/C(N=Nc1ccc(-n2c(C)nc3ccccc3c2=O)cc1)=C(/C)O`, the TGI is > 100 µM.
`C[C@@]12C=CC3C/C(=N\C(N)=S)C=C(CCCC4OCCO4)[C@]3(CC1)C2` (stereo partly drawn) came in with a TGI of 30.8 µM.
Molecule `CC(C)c1ccccc1SC1CC(=O)CC(Sc2ccccc2C(C)C)C12O[C@H](c1ccccc1)[C@@H](c1ccccc1)O2` (stereo partly drawn) returned a TGI of 47.9 µM.
Take `CSc1nc2ccccc2c(=O)n1/N=C1\C(=O)N(CN2CCCCC2)c2ccc(Cl)cc21`: the TGI is > 100 µM.

The subject of another experiment is SK-MEL-5 melanoma. Kind of experiment: NCI tumour cell line growth inhibition, 48 h.
Take `O=C(c1ccc(Cl)cc1Cl)N(C(=O)N1CCC(c2ccccc2)CC1)c1ccccc1`: the TGI was > 100 µM.
The molecule `COC(=O)CNC(=O)C(C)NC(=O)C(CC(=O)OCc1ccccc1)NC(=O)OCc1ccccc1` (stereo not drawn) (Cbz-Asp(OBn)-Ala-Gly-OMe; configuration not given here) had a TGI of 71.8 µM.
Turning to `Oc1ccccc1/C=N/Nc1nnc2c3ccccc3c3ccccc3c2n1`, the TGI is > 100 µM.
Same read-out and setting: the same measure for `CC(C)=CCOc1cc(NC(=S)c2ccoc2C)ccc1Cl`: > 100 µM.
On the same count and under the same terms, the same measure for `N#CC1(C#N)C2CCCCC23OC(=N)C1(C#N)C(c1ccco1)O3` (stereo not drawn): 31.3 µM.

The values are drawn from PubChem BioAssay (NCI).
